According to ChEMBL document CHEMBL6083250, “Core Modifications of GSK3335103 toward Orally Bioavailable αvβ6 Inhibitors with Improved Synthetic Tractability” (J Med Chem, 2024):

Key:
in vitro = details: PAMPA
[1] = Lipophilicity, logD of compound at pH 7.4 by chromatography; assay type: physicochemical; details: buffer
[2] = Volume of distribution at steady state in Wistar Han rat at 1 mg/kg, iv at 7 to 24 hrs by LC-MS/MS analysis; assay type: ADME, organism-based; details: in vivo, time 7-24 hrs, read-out: Vdss
[3] = Unbound AUC in Wistar Han rat at 2 mg/kg, po at 7 to 24 hrs by LC-MS/MS analysis; assay type: ADME, organism-based; details: in vivo, time 7-24 hrs
[4] = MRT in Wistar Han rat at 1 mg/kg, iv at 7 to 24 hrs by LC-MS/MS analysis; assay type: ADME, organism-based; details: in vivo, time 7-24 hrs
[5] = Kinetic solubility of compound by CAD analysis; assay type: physicochemical; details: read-out: Kinetic_solubility
[6] = Dissociation constant, pKa of compound; assay type: physicochemical
[7] = Oral availability in Wistar Han rat at 1 mg/kg at 7 to 24 hrs by LC-MS/MS analysis; assay type: ADME, organism-based; details: in vivo, time 7-24 hrs
[8] = Cmax in Wistar Han rat at 1 mg/kg, po at 7 to 24 hrs by LC-MS/MS analysis; assay type: ADME, organism-based; details: in vivo, time 7-24 hrs
[9] = AUC in Wistar Han rat at 1 mg/kg, po at 7 to 24 hrs by LC-MS/MS analysis; assay type: ADME, organism-based; details: in vivo, time 7-24 hrs
[10] = Unbound AUC in Wistar Han rat at 1 mg/kg, po at 7 to 24 hrs by LC-MS/MS analysis; assay type: ADME, organism-based; details: in vivo, time 7-24 hrs

| SMILES | Papp (in vitro) | chromatographic logD [1] | also measured |
| --- | --- | --- | --- |
| COCCOc1cccc([C@@H](CC(=O)O)CN2CC(C(F)(F)CCc3ccc4c(n3)NCCC4)C2)c1 | 3.2 ×10⁻⁶ cm/s | 3 |  |
| COCCOc1cccc([C@H](CC(=O)O)CN2CC[C@@](F)(CCc3ccc4c(n3)NCCC4)C2)c1 | 14.6 ×10⁻⁶ cm/s | 2.9 | Vd [2]: 3.6 L/kg; fAUC [3]: 280 ng·h/mL; MRT [4]: 3 h; solubility kinetic [5]: ≥ 238 µg/mL; pKa [6]: 4.1; bioavailability [7]: 93%; Cmax [8]: 530 ng/mL |
| COc1cc([C@H](CC(=O)O)CN2CC(C(F)(F)CCc3ccc4c(n3)NCCC4)C2)ccc1F | 16.3 ×10⁻⁶ cm/s | 3.1 | Vd [2]: 4.6 L/kg; MRT [4]: 3.1 h; solubility kinetic [5]: ≥ 159 µg/mL; AUC [9]: 881 ng·h/mL; pKa [6]: 4; fAUC [10]: 135 ng·h/mL; bioavailability [7]: 94% |
| O=C(O)CC(CN1CC(C(F)(F)CCc2ccc3c(n2)NCCC3)C1)c1cccc(O[C@@H]2CCOC2)c1 (mixture of isomers) | 8.2 ×10⁻⁶ cm/s | 2.8 |  |
| O=C(O)CC(CN1CC(C(F)(F)CCc2ccc3c(n2)NCCC3)C1)c1cccc(O[C@H]2CCOC2)c1 (mixture of isomers) | 6.3 ×10⁻⁶ cm/s | 2.9 |  |
| COc1cc(C(CC(=O)O)CN2CC(C(F)(F)CCc3ccc4c(n3)NCCC4)C2)ccc1C#N (racemic) | 5.5 ×10⁻⁶ cm/s | 2.9 |  |
| COc1cc(C(CC(=O)O)CN2CC(C(F)(F)CCc3ccc4c(n3)NCCC4)C2)ccc1F (racemic) | 23 ×10⁻⁶ cm/s | 3.2 | Vd [2]: 2.4 L/kg; MRT [4]: 3.8 h; AUC [9]: 1370 ng·h/mL; fAUC [10]: 212 ng·h/mL; bioavailability [7]: 79%; Cmax [8]: 313 ng/mL |
| O=C(O)CC(CN1CC(C(F)(F)CCc2ccc3c(n2)NCCC3)C1)c1cccc(OC2CCOCC2)c1 (racemic) | 8.9 ×10⁻⁶ cm/s | 3.1 |  |
| O=C(O)CC(CN1CC(C(F)(F)CCc2ccc3c(n2)NCCC3)C1)c1cccc(OC2CC2)c1 (racemic) | 39 ×10⁻⁶ cm/s | 3.5 |  |
| COc1cccc(C(CC(=O)O)CN2CC(C(F)(F)CCc3ccc4c(n3)NCCC4)C2)c1I (racemic) | 15 ×10⁻⁶ cm/s | 3 |  |
| O=C(O)CC(CN1CC(C(F)(F)CCc2ccc3c(n2)NCCC3)C1)c1ccnc(C2CC2)c1 (racemic) | 7.4 ×10⁻⁶ cm/s | 2.5 |  |
| COc1cc(C(CC(=O)O)CN2CC(C(F)(F)CCc3ccc4c(n3)NCCC4)C2)ccc1Cl (racemic) | 28 ×10⁻⁶ cm/s | 3.6 |  |
| COCCOc1cccc(C(CC(=O)O)CN2CC(OCc3ccc4c(n3)NCCC4)C2)c1 (racemic) | < 0.3 ×10⁻⁶ cm/s | 2 | pKa [6]: 4 |
| COc1ccc(F)c(C(CC(=O)O)CN2CC(C(F)(F)CCc3ccc4c(n3)NCCC4)C2)c1 (racemic) | 25 ×10⁻⁶ cm/s | 3.3 | Vd [2]: 1.6 L/kg; MRT [4]: 4.2 h; AUC [9]: 2460 ng·h/mL; fAUC [10]: 163 ng·h/mL; bioavailability [7]: 91%; Cmax [8]: 739 ng/mL |
| O=C(O)CC(CN1CC(C(F)(F)CCc2ccc3c(n2)NCCC3)C1)c1ccnc(OC2CC2)c1 (racemic) | 10.4 ×10⁻⁶ cm/s | 2.7 |  |
| O=C(O)CC(CN1CC(C(F)(F)CCc2ccc3c(n2)NCCC3)C1)c1ccc2c(c1)OCC2 (racemic) | 16 ×10⁻⁶ cm/s | 3 |  |
| O=C(O)CC(CN1CC(C(F)(F)CCc2ccc3c(n2)NCCC3)C1)c1cccc2c1OCC2 (racemic) | 19 ×10⁻⁶ cm/s | 3.1 |  |
| COc1ncc(C(CC(=O)O)CN2CC(C(F)(F)CCc3ccc4c(n3)NCCC4)C2)cc1C (racemic) | 10.2 ×10⁻⁶ cm/s | 2.7 | Vd [2]: 1.1 L/kg; MRT [4]: 2.9 h; solubility kinetic [5]: ≥ 118 µg/mL; AUC [9]: 1510 ng·h/mL; fAUC [10]: 152 ng·h/mL; bioavailability [7]: 57%; Cmax [8]: 496 ng/mL |

Continued, in another order:

| Papp (in vitro) | chromatographic logD [1] | SMILES | also measured |
| --- | --- | --- | --- |
| 2.7 ×10⁻⁶ cm/s |  | O=C(O)C[C@H](CN1CC[C@@H](CCc2ccc3c(n2)NCCC3)C1)c1cccc(N2CCOCC2)c1 |  |
| < 0.3 ×10⁻⁶ cm/s |  | O=C(O)C[C@H](CN1CC(CCc2ccc3c(n2)NCCC3)C1)c1cccc(N2CCOCC2)c1 |  |
| < 0.3 ×10⁻⁶ cm/s |  | Cc1cc(C)n(-c2cccc([C@@H](CC(=O)O)CN3CC(CCCc4ccc5c(n4)NCCC5)C3)c2)n1 |  |
| 6.5 ×10⁻⁶ cm/s | 2.4 | COCCOc1cccc([C@@H](CC(=O)O)CN2CC(SCCc3ccc4c(n3)NCCC4)C2)c1 |  |
| < 1 ×10⁻⁶ cm/s |  | Cc1cc(C)n(-c2cccc([C@H](CC(=O)O)CN3CC(CCCc4ccc5c(n4)NCCC5)C3)c2)n1 |  |
| 8.8 ×10⁻⁶ cm/s | 3 | COCCOc1cccc([C@H](CC(=O)O)CN2CC(C(F)(F)CCc3ccc4c(n3)NCCC4)C2)c1 | Vd [2]: 3 L/kg; MRT [4]: 1.7 h; AUC [9]: 95 ng·h/mL; pKa [6]: 3.9; fAUC [10]: 38 ng·h/mL; bioavailability [7]: 17%; Cmax [8]: 20.4 ng/mL |
| 7.2 ×10⁻⁶ cm/s | 2.4 | COCCOc1cccc([C@H](CC(=O)O)CN2CC(SCCc3ccc4c(n3)NCCC4)C2)c1 | pKa [6]: 4.3 |
| 5.5 ×10⁻⁶ cm/s | 2.7 | O=C(O)CC(CN1CC(C(F)(F)CCc2ccc3c(n2)NCCC3)C1)c1cccc(N2CCOCC2)c1 (racemic) |  |
| 21 ×10⁻⁶ cm/s | 3 | O=C(O)CC(CN1CC(C(F)(F)CCc2ccc3c(n2)NCCC3)C1)c1ccccc1 (racemic) |  |
| 21 ×10⁻⁶ cm/s | 3.4 | CCOc1cccc(C(CC(=O)O)CN2CC(C(F)(F)CCc3ccc4c(n3)NCCC4)C2)c1 (racemic) |  |
| 20 ×10⁻⁶ cm/s | 3 | COc1cccc(C(CC(=O)O)CN2CC(C(F)(F)CCc3ccc4c(n3)NCCC4)C2)c1 (racemic) |  |
| 13 ×10⁻⁶ cm/s | 3.3 | Cc1cc(C)n(-c2cccc(C(CC(=O)O)CN3CC(C(F)(F)CCc4ccc5c(n4)NCCC5)C3)c2)n1 (racemic) | Vd [2]: 0.7 L/kg; MRT [4]: 0.2 h; AUC [9]: 14 ng·h/mL; fAUC [10]: 0.6 ng·h/mL; bioavailability [7]: 3%; Cmax [8]: 12.4 ng/mL |
| 43 ×10⁻⁶ cm/s | 3.7 | O=C(O)CC(CN1CC(C(F)(F)CCc2ccc3c(n2)NCCC3)C1)c1cccc(C2CC2)c1 (racemic) |  |
